Reference: patent US10351609B2, “Cell-based assay for determining mTOR activity” (Medical Diagnostic Laboratories, LLC, priority 2016, dated 2019)
Where two headings read alike, the source gives them in different places.

Columns and labels:
[1] = target: T1, WT mTOR (Homo sapiens, UniProt P42345); experiment: 3A1 clone stably expressing SB-eIF4E, transiently expressing LB-4E-BP2 and WT mTOR; assay type: cell-based; details: 3A1 stably SB-eIF4E, concentration curves at least 5 logs, FIG. 16
T1 construct: our assay has the ability to measure the function of full-length mTOR and its genetic variants; expressed in transfected cells
Source text: (§1) To overcome this issue, we created a stable cell pool with the 3A1 clone, stably expressing only SB-eIF4E.

[2] = target: T2, mTOR (Homo sapiens, UniProt P42345); experiment: 3A1 clone with stable expression of SB-eIF4E/LB-4E-BP2 (stable pool and single-cell clones); assay type: cell-based; details: 3A1 stable cell line pool expressing SB-eIF4E/LB-4E-BP2, FIG. 12
Description: Taking the 3A1 clone, we created a stable cell line pool (cells that underwent a minimum of 2 weeks of hygromycin selection) with stable expression of SB-eIF4E/ LB-4E-BP2.
Three to five days after transfection, the transfected cells were trypsinized and replated on to 6-count of 10 cm plates containing 300 μg/ml of hygromycin (ThermoFisher). For 7 days, media was replaced every 2-3 days with fresh hygromycin, after which cells were trypsinized, pooled and concentrated, and counted for plating as single cells on to 96-well plates. Fifty ml containing 400 cells were plated on to 5-count of 96-well plates with each well containing 100 μl of media+cell. DMEM conditioned with previous incubation with HEK293 cells was saved, filtered, and used for single-cell plating. The remainder of the hygromycin treated cells was then pooled and used as “stable pools” for experimentation.

[3] = target: T2, mTOR; assay type: cell-based; details: 3A1 clone transiently transfected with SB-eIF4E/LB-4E-BP2, FIG. 11
Source text: We compared single-cell clone termed “3A1” (FIG. 10A,B) with single-cell clone termed “1C3” (FIG. 10C,D) in the assay containing either LB-4E-BP1(Figure 10A,C) or LB-4E-BP2 (FIG. 10B,D).

[4] = target: T3, S2035I mTOR (Homo sapiens, UniProt P42345, S2035I); experiment: B10 clone stably expressing SB-eIF4E, transient LB-4E-BP2 and S2035I mTOR; assay type: cell-based; details: FIG. 18
T3 construct: our assay has the ability to measure the function of full-length mTOR and its genetic variants; expressed in transfected cells

[5] = tested on: cellular proliferation; details: Hsieh et al., 2012; read-out: EC50 for the inhibition of cellular proliferation; cited from earlier work
[6] = target: T1, WT mTOR; experiment: B10 clone (4E-BP dKO, MTOR genomic modification) stably expressing SB-eIF4E, transient LB-4E-BP2 and WT mTOR; assay type: cell-based; details: FIG. 18
[7] = target: T3, S2035I mTOR; experiment: 3A1 clone stably expressing SB-eIF4E, transiently expressing LB-4E-BP2 and S2035I mTOR; assay type: cell-based; details: 3A1 stably SB-eIF4E, concentration curves at least 5 logs, FIG. 16
Source text: as §1

[8] = tested on: phosphorylation of the ribosomal protein S6; details: Guichard et al., 2015; read-out: IC50 for inhibition of phosphorylation of the ribosomal protein S6; cited from earlier work
[9] = tested on: phosphorylation of 4E-BP1; details: read-out: reported IC50 in inhibiting phosphorylation of 4E-BP1; Western blot; Sedrani et al., 1998; cited from earlier work

| concentration dependence of luminescence [3] | concentration dependence of signal [7] | Compound | concentration dependence of signal [1] | concentration dependence of luminescence [2] | concentration dependence of signal [4] | EC50 [5] | concentration dependence of signal [6] | IC50 [8] | IC50 [9] |
| --- | --- | --- | --- | --- | --- | --- | --- | --- | --- |
| – | – | CO[C@@H](C)Cn1c(=O)n(C)c2cnc3ccc(-c4cncc(C(C)(C)O)c4)cc3c21 [LY3023414] | – | concentration-dependent increase in luminescence | – | – | – | – | – |
| concentration dependent activation | concentration-dependent increase | CNC(=O)c1cccc(-c2ccc3c(N4CCOC[C@@H]4C)nc(N4CCOC[C@@H]4C)nc3n2)c1 [AZD2014] | concentration-dependent increase in signal | concentration-dependent activation of luminescence | concentration-dependent increase for both mTORs | – | concentration-dependent increase for both mTORs | 0.21 µM | – |
| concentration dependent activation | rapamycin resistance | CO[C@H]1C[C@@H]2CC[C@@H](C)[C@@](O)(O2)C(=O)C(=O)N2CCCC[C@H]2C(=O)O[C@H]([C@H](C)C[C@@H]2CC[C@@H](OCCO)[C@H](OC)C2)CC(=O)[C@H](C)/C=C(\C)[C@@H](O)[C@@H](OC)C(=O)[C@H](C)C[C@H](C)/C=C/C=C/C=C/1C [everolimus] | concentration-dependent increase in signal | concentration-dependent activation of luminescence | cleaner difference between the WT and S2035I mTOR | – | – | – | 0.0016 to 0.0024 µM |
| – | – | CO[C@H]1CC[C@H](N2C(=O)CNc3ncc(-c4ccc(C(C)(C)O)nc4)nc32)CC1 [CC223] | – | concentration-dependent increase in luminescence | – | – | – | – | – |
| – | – | CCc1cncnc1N1CCN(Cc2nc3ccc(C(F)(F)F)cc3[nH]2)CC1 [PF4708671] | – | did not | – | – | – | – | – |

| Compound | concentration dependence of luminescence [3] | concentration dependence of signal [7] | concentration dependence of signal [1] | concentration dependence of luminescence [2] | concentration dependence of signal [4] | EC50 [5] | concentration dependence of signal [6] | IC50 [8] | IC50 [9] |
| --- | --- | --- | --- | --- | --- | --- | --- | --- | --- |
| CC(C)n1nc(-c2ccc3oc(N)nc3c2)c2c(N)ncnc21 [INK128] | concentration dependent activation | concentration-dependent increase | concentration-dependent increase in signal | concentration-dependent activation of luminescence | concentration-dependent increase for both mTORs | 0.017 µM | concentration-dependent increase for both mTORs | – | – |
